# What was measured:
# C. freundii GN346 = assay: Sensitivity test (agar dilution); assay type: cell-based, Citrobacter freundii
# Protocol: (§1) The antibacterial activities were tested against various 18 bacteria (27 standard strains) which are representative bacteria caused clinically infectious disease (Staphylococcus aureus 3 strains, Staphylococcus epidermidis 1 strain, Micrococcus luteus 1 strain, Streptococcus pyogenes 1 strain, Enterococcus faecalis 1 strain, Enterococcus faecium 1 strain, Bacillus subtilis 1 strain, Escherichia coli 3 strains, Klebsiella pneumoniae 1 strain, Proteus mirabilis 1 strain, Proteus vulgaris 2 strains, Pseudomonas aeruginosa 3 strains, Serratia marcescens 2 strains, Enterobacter aerogenes 1 strain, Stenotrophomonas maltophilia 1 strain, Enterobacter cloacae 1 strain, Citrobacter freundii 1 strain, Moraxella catarrhalis 2 strains).
# (§2) According to the standard method of Japan Chemotherapeutic Society (Chemotherapy, vol. […], p 76-79 (1981)) the test was carried out using the agar dilution method. After dissolving test samples in distilled water, agar medium containing the test samples was prepared in such a manner that the final concentration became twice serial dilution by pouring serially diluted combination drug solution or a single drug solution into agar medium. As agar medium was used Mueller Hinton Agar medium (MHA). Then, each strain was cultivated over night at 37° C. in an incubator and suspended in buffered saline solution with gelatin (BSG) in the concentration of about 10^6 CFU/ml. The suspension (about 5 μl) containing test strains was inoculated to the medium containing the test samples by Micro Planter.
# (§3) When the sample is subjected to sensitivity test, this mixed solution was diluted by twice serial dilution method.
# (§4) Furthermore, when the drug is solely used, each test sample was used as it is, and diluted by twice serial dilution method from the maximum concentration to the minimum concentration.
# (§5) FIC index based on MIC value was calculated. […] Namely, when FIC index calculated by the following formula is equal or less than 1, the enhanced effect of the combination drug in said ratio is considered as positive. When FIC index is over 1, the enhanced effect of the combination drug in said ratio is considered as negative.
# (§6) Formula of FIC index: FIC index=(MIC of Drug A in combination/MIC of Drug A alone)+(MIC of Drug B in combination/MIC of Drug B alone) N.C. in tables means being not calculated.
# [1] = tested on: 18 bacteria (27 standard strains); assay: Sensitivity test, combination effect over the standard strains; assay type: cell-based; details: in combination with compound 1, standard strains
# Protocol: as §1, §2, §3, §5, §6
# E. cloacae GN7471 = assay: Sensitivity test (agar dilution); assay type: cell-based, Enterobacter cloacae
# Protocol: as §1, §2, §3, §4, §5, §6
# B. subtilis ATCC6633 = assay: Sensitivity test (agar dilution); assay type: cell-based, Bacillus subtilis
# Protocol: as §1, §2, §3, §4, §5, §6
# P. aeruginosa TL-2667 = assay: Sensitivity test (agar dilution); assay type: cell-based, Pseudomonas aeruginosa
# Protocol: as §1, §2, §3, §4, §5, §6
# P. aeruginosa IFO3451 = assay: Sensitivity test (agar dilution); assay type: cell-based, Pseudomonas aeruginosa
# Protocol: as §1, §2, §3, §4, §5, §6
# P. aeruginosa TL-2666 = assay: Sensitivity test (agar dilution); assay type: cell-based, Pseudomonas aeruginosa
# Protocol: as §1, §2, §3, §4, §5, §6
# P. mirabiris GN2425 = assay: Sensitivity test (agar dilution); assay type: cell-based, Proteus mirabilis
# Protocol: as §1, §2, §3, §4, §5, §6
# E. faecium ATCC19434 = assay: Sensitivity test (agar dilution); assay type: cell-based, Enterococcus faecium
# Protocol: as §1, §2, §3, §4, §5, §6
# E. coli ML1410 RP4 = assay: microbe, parasite or virus in culture; assay type: cell-based, Escherichia coli; details: alone
# Protocol: as §1, §2, §3, §4, §5, §6
# M. luteus ATCC9341 = assay: Sensitivity test (agar dilution); assay type: cell-based, Micrococcus luteus
# Protocol: as §1, §2, §3, §4, §5, §6
# E. aerogenes ATCC13048 = assay: Sensitivity test (agar dilution); assay type: cell-based, Enterobacter aerogenes
# Protocol: as §1, §2, §3, §4, §5, §6
# E. faecalis ATCC19433 = assay: Sensitivity test (agar dilution); assay type: cell-based, Enterococcus faecalis
# Protocol: as §1, §2, §3, §4, §5, §6
# M. catarrhalis ATCC8176 = assay: Sensitivity test (agar dilution); assay type: cell-based, Moraxella catarrhalis
# Protocol: as §1, §2, §3, §4, §5, §6
# M. catarrhalis ATCC25238 = assay: Sensitivity test (agar dilution); assay type: cell-based, Moraxella catarrhalis
# Protocol: as §1, §2, §3, §4, §5, §6
# S. maltophilia IID1275 = assay: Sensitivity test (agar dilution); assay type: cell-based, Stenotrophomonas maltophilia
# Protocol: as §1, §2, §3, §4, §5, §6
# P. vurgalis OX-19 = assay: Sensitivity test (agar dilution); assay type: cell-based, Proteus vulgaris
# Protocol: as §1, §2, §3, §4, §5, §6
# P. vulgaris GN7919 = assay: Sensitivity test (agar dilution); assay type: cell-based, Proteus vulgaris
# Protocol: as §1, §2, §3, §4, §5, §6
# S. aureus 209P = assay: Sensitivity test (agar dilution); assay type: cell-based, Staphylococcus aureus
# Protocol: as §1, §2, §3, §4, §5, §6
# [2] = tested on: S. aureus SP-7928 (homo-MRSA); assay: Sensitivity test (agar dilution); assay type: cell-based, Staphylococcus aureus
# Protocol: as §1, §2, §3, §4, §5, §6
# [3] = tested on: S. aureus MS94088 (hetero-MRSA); assay: Sensitivity test (agar dilution); assay type: cell-based, Staphylococcus aureus
# Protocol: as §1, §2, §3, §4, §5, §6
# E. coli NIHJ JC-2 = assay: Sensitivity test (agar dilution); assay type: cell-based, Escherichia coli
# Protocol: as §1, §2, §3, §4, §5, §6
# E. coli ML1410 = assay: Sensitivity test (agar dilution); assay type: cell-based, Escherichia coli; details: alone
# Protocol: as §1, §2, §3, §4, §5, §6
# S. marcescens X 100 = assay: Sensitivity test (agar dilution); assay type: cell-based, Serratia marcescens
# Protocol: as §1, §2, §3, §4, §5, §6
# S. marcescens GN6473 = assay: Sensitivity test (agar dilution); assay type: cell-based, Serratia marcescens
# Protocol: as §1, §2, §3, §4, §5, §6
# S. epidermidis IAM1296 = assay: Sensitivity test (agar dilution); assay type: cell-based, Staphylococcus epidermidis
# Protocol: as §1, §2, §3, §4, §5, §6
# Str. pyogenes Cook = assay: Sensitivity test (agar dilution); assay type: cell-based, Streptococcus pyogenes
# Protocol: as §1, §2, §3, §4, §5, §6
# K. pneumoniae ATCC10031 = assay: Sensitivity test (agar dilution); assay type: cell-based, Klebsiella pneumoniae
# Protocol: as §1, §2, §3, §4, §5, §6
smiles,measurement,setting,value
"C[C@@H](O)[C@H]1C(=O)N2C(C(=O)O)=C(SCCN=CN)C[C@H]12 [IPM, imipenem]",MIC,C. freundii GN346; Concomitant (IPM:SM = 1:1),0.25 µg/mL
same,MIC,C. freundii GN346; alone,0.5 µg/mL
same,combination effect,[1],the combination effect was recognized
same,MIC,E. cloacae GN7471; Concomitant (IPM:SM = 1:1),0.125 µg/mL
same,MIC,E. cloacae GN7471; alone,0.125 µg/mL
same,MIC,B. subtilis ATCC6633; Concomitant (IPM:SM = 1:1),≦0.002 μg/ml
same,MIC,B. subtilis ATCC6633; alone,0.016 µg/mL
same,MIC,P. aeruginosa TL-2667; Concomitant (IPM:SM = 1:1),8 µg/mL
same,MIC,P. aeruginosa TL-2667; alone,8 µg/mL
same,MIC,P. aeruginosa IFO3451; Concomitant (IPM:SM = 1:1),0.5 µg/mL
same,MIC,P. aeruginosa IFO3451; alone,1 µg/mL
same,MIC,P. aeruginosa TL-2666; Concomitant (IPM:SM = 1:1),1 µg/mL
same,MIC,P. aeruginosa TL-2666; alone,2 µg/mL
same,MIC,P. mirabiris GN2425; Concomitant (IPM:SM = 1:1),0.25 µg/mL
same,MIC,P. mirabiris GN2425; alone,1 µg/mL
same,MIC,E. faecium ATCC19434; Concomitant (IPM:SM = 1:1),0.125 µg/mL
same,MIC,E. faecium ATCC19434; alone,4 µg/mL
same,MIC,E. coli ML1410 RP4,0.5 µg/mL
same,MIC,M. luteus ATCC9341; Concomitant (IPM:SM = 1:1),0.004 µg/mL
same,MIC,M. luteus ATCC9341; alone,0.024 µg/mL
same,MIC,E. aerogenes ATCC13048; Concomitant (IPM:SM = 1:1),0.125 µg/mL
same,MIC,E. aerogenes ATCC13048; alone,0.25 µg/mL
same,MIC,E. faecalis ATCC19433; Concomitant (IPM:SM = 1:1),0.5 µg/mL
same,MIC,E. faecalis ATCC19433; alone,1 µg/mL
same,MIC,M. catarrhalis ATCC8176; Concomitant (IPM:SM = 1:1),≦0.002 μg/ml
same,MIC,M. catarrhalis ATCC8176; alone,0.008 µg/mL
same,MIC,M. catarrhalis ATCC25238; Concomitant (IPM:SM = 1:1),≦0.002 μg/ml
same,MIC,M. catarrhalis ATCC25238; alone,0.008 µg/mL
same,MIC,S. maltophilia IID1275; Concomitant (IPM:SM = 1:1),>32 µg/mL
same,MIC,S. maltophilia IID1275; alone,>32 µg/mL
same,MIC,P. vurgalis OX-19; Concomitant (IPM:SM = 1:1),0.063 µg/mL
same,MIC,P. vurgalis OX-19; alone,1 µg/mL
same,MIC,P. vulgaris GN7919; Concomitant (IPM:SM = 1:1),0.5 µg/mL
same,MIC,P. vulgaris GN7919; alone,1 µg/mL
same,MIC,S. aureus 209P; Concomitant (IPM:SM = 1:1),0.004 µg/mL
same,MIC,S. aureus 209P; alone,0.008 µg/mL
same,MIC,[2]; Concomitant (IPM:SM = 1:1),2 µg/mL
same,MIC,[2]; alone,>32 µg/mL
same,MIC,[3]; Concomitant (IPM:SM = 1:1),0.25 µg/mL
same,MIC,[3]; alone,0.125 µg/mL
same,MIC,E. coli NIHJ JC-2; Concomitant (IPM:SM = 1:1),0.063 µg/mL
same,MIC,E. coli NIHJ JC-2; alone,0.125 µg/mL
same,MIC,E. coli ML1410,0.25 µg/mL
same,MIC,S. marcescens X 100; Concomitant (IPM:SM = 1:1),0.125 µg/mL
same,MIC,S. marcescens X 100; alone,0.25 µg/mL
same,MIC,S. marcescens GN6473; Concomitant (IPM:SM = 1:1),0.25 µg/mL
same,MIC,S. marcescens GN6473; alone,0.25 µg/mL
same,MIC,S. epidermidis IAM1296; Concomitant (IPM:SM = 1:1),0.016 µg/mL
same,MIC,S. epidermidis IAM1296; alone,0.25 µg/mL
same,MIC,Str. pyogenes Cook; Concomitant (IPM:SM = 1:1),≦0.002 μg/ml
same,MIC,Str. pyogenes Cook; alone,≦0.002 μg/ml
same,MIC,K. pneumoniae ATCC10031; Concomitant (IPM:SM = 1:1),0.031 µg/mL
same,MIC,K. pneumoniae ATCC10031; alone,0.125 µg/mL

# From patent publication US20090018111A1, “Novel Antimicrobial Medicament” (priority 2004, published 2009)
